Among the data in publication PMC6593427, “DUckCov: a Dynamic Undocking‐Based Virtual Screening Protocol for Covalent Binders” (Chemmedchem, 2019) are IC50 and inhibition values, retold here.

Common to all, as to assay type: biochemical
The target in one experiment is T1, JAK3 (Homo sapiens, UniProt P52333).
T1 construct: commercial Z'-LYTE kinase assay (Life Technologies)
T1 sequence (P52333 1-1124): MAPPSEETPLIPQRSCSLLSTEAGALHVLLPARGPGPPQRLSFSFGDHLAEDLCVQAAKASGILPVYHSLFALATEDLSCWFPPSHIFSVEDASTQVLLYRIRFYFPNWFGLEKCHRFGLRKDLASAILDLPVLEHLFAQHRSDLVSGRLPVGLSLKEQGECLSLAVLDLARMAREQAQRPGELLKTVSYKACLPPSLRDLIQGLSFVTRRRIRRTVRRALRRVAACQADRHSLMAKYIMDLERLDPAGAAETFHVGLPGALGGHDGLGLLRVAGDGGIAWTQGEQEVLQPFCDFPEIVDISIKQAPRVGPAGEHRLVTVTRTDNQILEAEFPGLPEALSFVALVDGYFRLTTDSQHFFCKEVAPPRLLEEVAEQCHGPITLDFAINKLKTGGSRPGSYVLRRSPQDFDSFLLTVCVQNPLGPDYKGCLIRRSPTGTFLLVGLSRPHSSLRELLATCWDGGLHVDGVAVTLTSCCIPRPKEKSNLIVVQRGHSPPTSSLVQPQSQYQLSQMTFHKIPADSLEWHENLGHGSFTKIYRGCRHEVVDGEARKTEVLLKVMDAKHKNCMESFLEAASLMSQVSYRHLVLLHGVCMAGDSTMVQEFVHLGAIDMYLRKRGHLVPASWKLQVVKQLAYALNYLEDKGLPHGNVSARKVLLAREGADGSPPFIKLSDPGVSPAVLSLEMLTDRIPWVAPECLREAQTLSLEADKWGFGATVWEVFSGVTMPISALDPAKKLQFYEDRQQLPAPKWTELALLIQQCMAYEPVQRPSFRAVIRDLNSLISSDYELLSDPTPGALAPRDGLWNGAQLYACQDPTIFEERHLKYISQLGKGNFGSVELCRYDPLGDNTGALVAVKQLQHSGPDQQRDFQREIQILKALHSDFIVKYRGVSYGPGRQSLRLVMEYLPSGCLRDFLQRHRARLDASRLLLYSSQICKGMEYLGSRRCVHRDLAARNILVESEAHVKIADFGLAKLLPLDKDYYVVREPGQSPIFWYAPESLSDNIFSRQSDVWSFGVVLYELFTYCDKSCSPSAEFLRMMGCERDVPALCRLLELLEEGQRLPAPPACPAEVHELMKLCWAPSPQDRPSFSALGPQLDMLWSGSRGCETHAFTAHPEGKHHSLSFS
Kind of experiment: Z'-LYTE FRET kinase assay, 10-point titration.

For another experiment, the target named is JAK2 (Homo sapiens, UniProt O60674). Briefly: kinase inhibition assay.
Chain of JAK2 (O60674 whole entry): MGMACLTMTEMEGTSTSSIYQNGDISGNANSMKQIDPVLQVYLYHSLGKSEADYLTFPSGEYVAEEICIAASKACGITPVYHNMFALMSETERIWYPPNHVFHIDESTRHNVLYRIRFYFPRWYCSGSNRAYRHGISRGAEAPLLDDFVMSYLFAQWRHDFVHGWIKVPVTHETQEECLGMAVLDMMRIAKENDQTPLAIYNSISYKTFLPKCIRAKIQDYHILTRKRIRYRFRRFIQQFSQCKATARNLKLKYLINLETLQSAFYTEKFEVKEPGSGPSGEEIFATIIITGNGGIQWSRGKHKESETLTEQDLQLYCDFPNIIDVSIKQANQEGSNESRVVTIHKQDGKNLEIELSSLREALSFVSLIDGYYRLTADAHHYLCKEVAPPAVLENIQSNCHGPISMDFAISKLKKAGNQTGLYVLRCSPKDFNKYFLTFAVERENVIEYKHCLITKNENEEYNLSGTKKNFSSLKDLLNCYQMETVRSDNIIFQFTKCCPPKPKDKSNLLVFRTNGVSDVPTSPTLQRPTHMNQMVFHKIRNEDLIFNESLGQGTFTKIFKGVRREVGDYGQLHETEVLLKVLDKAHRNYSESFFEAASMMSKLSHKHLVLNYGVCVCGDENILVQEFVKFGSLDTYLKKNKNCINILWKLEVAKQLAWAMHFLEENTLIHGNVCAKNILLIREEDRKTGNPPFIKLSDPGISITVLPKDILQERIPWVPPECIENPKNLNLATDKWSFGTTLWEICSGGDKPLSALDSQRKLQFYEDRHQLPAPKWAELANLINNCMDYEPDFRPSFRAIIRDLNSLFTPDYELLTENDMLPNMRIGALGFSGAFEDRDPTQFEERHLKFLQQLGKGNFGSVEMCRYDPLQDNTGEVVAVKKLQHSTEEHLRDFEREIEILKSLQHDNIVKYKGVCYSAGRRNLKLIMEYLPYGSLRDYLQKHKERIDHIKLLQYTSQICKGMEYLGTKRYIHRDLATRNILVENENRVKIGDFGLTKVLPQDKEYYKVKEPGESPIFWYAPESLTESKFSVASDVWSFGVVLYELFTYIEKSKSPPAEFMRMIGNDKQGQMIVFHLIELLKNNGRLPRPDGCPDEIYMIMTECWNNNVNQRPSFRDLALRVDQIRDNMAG
The next experiment has as its target JAK1 (Homo sapiens, UniProt P23458). Kind of experiment: kinase inhibition assay.

Usually IC50 stands for the concentration needed to halve the response being measured. What is called inhibition is the relative decrease from the control value, in per cent. A higher inhibition goes with a strong effect.

Chain of JAK1 (P23458 whole entry): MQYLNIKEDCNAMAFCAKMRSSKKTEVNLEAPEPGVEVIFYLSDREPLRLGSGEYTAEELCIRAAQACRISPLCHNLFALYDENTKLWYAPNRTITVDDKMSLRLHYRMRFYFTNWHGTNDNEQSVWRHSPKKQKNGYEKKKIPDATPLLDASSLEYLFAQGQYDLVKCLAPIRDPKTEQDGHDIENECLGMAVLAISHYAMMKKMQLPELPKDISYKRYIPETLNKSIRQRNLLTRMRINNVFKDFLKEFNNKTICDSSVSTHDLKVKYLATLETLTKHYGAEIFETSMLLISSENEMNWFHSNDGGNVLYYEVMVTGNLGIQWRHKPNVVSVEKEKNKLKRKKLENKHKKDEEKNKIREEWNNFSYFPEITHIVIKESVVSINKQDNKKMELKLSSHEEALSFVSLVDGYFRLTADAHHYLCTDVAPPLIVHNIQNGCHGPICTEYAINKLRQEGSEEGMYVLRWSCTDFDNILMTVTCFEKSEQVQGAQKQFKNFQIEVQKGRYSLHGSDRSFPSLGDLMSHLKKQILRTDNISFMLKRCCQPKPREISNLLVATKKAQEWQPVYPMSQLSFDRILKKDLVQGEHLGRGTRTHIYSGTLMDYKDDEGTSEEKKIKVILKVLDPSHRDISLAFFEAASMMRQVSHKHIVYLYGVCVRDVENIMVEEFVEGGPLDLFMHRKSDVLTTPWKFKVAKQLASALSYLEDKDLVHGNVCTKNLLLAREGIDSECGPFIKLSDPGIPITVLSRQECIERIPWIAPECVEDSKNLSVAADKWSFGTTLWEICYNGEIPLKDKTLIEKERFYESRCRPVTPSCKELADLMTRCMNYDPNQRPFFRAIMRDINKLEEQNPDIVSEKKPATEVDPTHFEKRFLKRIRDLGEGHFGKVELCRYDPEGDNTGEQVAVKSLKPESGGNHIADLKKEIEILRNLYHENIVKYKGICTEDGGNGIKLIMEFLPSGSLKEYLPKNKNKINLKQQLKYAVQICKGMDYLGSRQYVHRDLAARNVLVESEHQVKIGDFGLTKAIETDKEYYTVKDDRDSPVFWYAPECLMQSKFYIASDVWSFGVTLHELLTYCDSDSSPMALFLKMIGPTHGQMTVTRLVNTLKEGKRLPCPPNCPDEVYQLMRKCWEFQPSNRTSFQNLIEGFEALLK

`C=CC(=O)N1C[C@H](COc2nc(Nc3cnn(C)c3)nc3[nH]cc(Cl)c23)[C@@H](OC)C1` [compound 1, PF-06459988]: the IC50 against JAK3 came out at 0.005 µM.
In the case of `C=CC(=O)Nc1cc(NC(=O)c2n[nH]c3ccccc23)ccc1F` [compound 5], the IC50 at JAK3 is 0.389 µM. The inhibition at 10 µM at JAK2 was 62%; at JAK1 it was 18%.
On JAK3, `C=CC(=O)Nc1cc(NC(=O)c2n[nH]c3c2CCC3)ccc1F` [compound 9] came in with an IC50 of 1.27 µM.
